Values joined by “and” are separate entries in the source; they are usually repeats but may differ in a detail not shown here. Equal values may be shown once.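 Method: 48-hour compound exposure of cells in 96-well plates, five concentrations, linear interpolation of endpoints. GI50 marks 50% less growth. TGI: concentration producing complete growth inhibition.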
Tests used:
Experiment in all cases: NCI anticancer screen, dose series, 48 h
HL-60(TB) leukemia = tested on: HL-60(TB) leukemia
MOLT-4 leukemia = tested on: MOLT-4 leukemia
LXFL 529 NSCLC = tested on: LXFL 529 NSCLC
OVCAR-4 ovarian = tested on: OVCAR-4 ovarian
HCT-15 colon = tested on: HCT-15 colon
M14 melanoma = tested on: M14 melanoma
RPMI-8226 leukemia = tested on: RPMI-8226 leukemia
SW-620 colon = tested on: SW-620 colon
NCI-H23 lung = tested on: NCI-H23 lung
ACHN renal = tested on: ACHN renal
OVCAR-3 ovarian = tested on: OVCAR-3 ovarian
SF-268 CNS = tested on: SF-268 CNS
HCT-116 colon = tested on: HCT-116 colon
LOX IMVI melanoma = tested on: LOX IMVI melanoma
SNB-78 CNS = tested on: SNB-78 CNS
SF-539 CNS = tested on: SF-539 CNS
OVCAR-8 ovarian = tested on: OVCAR-8 ovarian
SK-OV-3 ovarian = tested on: SK-OV-3 ovarian
TK-10 renal = tested on: TK-10 renal
DLD-1 colon = tested on: DLD-1 colon
IGROV1 ovarian = tested on: IGROV1 ovarian
U251 CNS = tested on: U251 CNS
HOP-62 NSCLC = tested on: HOP-62 NSCLC
KM12 colon = tested on: KM12 colon
EKVX NSCLC = tested on: EKVX NSCLC
MALME-3M melanoma = tested on: MALME-3M melanoma
SNB-75 CNS = tested on: SNB-75 CNS
K-562 leukemia = tested on: K-562 leukemia
SK-MEL-28 melanoma = tested on: SK-MEL-28 melanoma
DMS 114 small cell lung = tested on: DMS 114 small cell lung
UO-31 renal = tested on: UO-31 renal
CCRF-CEM leukemia = tested on: CCRF-CEM leukemia
SK-MEL-2 melanoma = tested on: SK-MEL-2 melanoma
SK-MEL-5 melanoma = tested on: SK-MEL-5 melanoma
NCI-H522 lung = tested on: NCI-H522 lung
A549 NSCLC = tested on: A549 NSCLC
CAKI-1 renal = tested on: CAKI-1 renal
NCI-H460 lung = tested on: NCI-H460 lung
UACC-62 melanoma = tested on: UACC-62 melanoma
786-0 renal = tested on: 786-0 renal
COLO 205 colon = tested on: COLO 205 colon
UACC-257 melanoma = tested on: UACC-257 melanoma
M19-MEL melanoma = tested on: M19-MEL melanoma
A498 renal = tested on: A498 renal
KM20L2 colon = tested on: KM20L2 colon
RXF 393 renal = tested on: RXF 393 renal
OVCAR-5 ovarian = tested on: OVCAR-5 ovarian
SNB-19 CNS = tested on: SNB-19 CNS
HCC-2998 colon = tested on: HCC-2998 colon
NCI-H226 lung = tested on: NCI-H226 lung
HOP-92 NSCLC = tested on: HOP-92 NSCLC
SR leukemia = tested on: SR leukemia
HT29 colon = tested on: HT29 colon
SF-295 CNS = tested on: SF-295 CNS
BT-549 breast = tested on: BT-549 breast
PC-3 prostate = tested on: PC-3 prostate
SN12C renal = tested on: SN12C renal
T-47D breast = tested on: T-47D breast
MDA-MB-231 breast = tested on: MDA-MB-231 breast
MCF7 breast = tested on: MCF7 breast
NCI/ADR-RES ovarian = tested on: NCI/ADR-RES ovarian
MDA-MB-435 = tested on: MDA-MB-435
HS 578T breast = tested on: HS 578T breast
MDA-N = tested on: MDA-N
DU-145 prostate = tested on: DU-145 prostate

O=C1NC(=O)C(C(=O)C(=O)Nc2cccc(C(F)(F)F)c2)C(=O)N1
TGI (HL-60(TB) leukemia): > 100 µM | TGI (MOLT-4 leukemia): > 100 µM | TGI (LXFL 529 NSCLC): > 100 µM | TGI (OVCAR-4 ovarian): > 100 µM | TGI (HCT-15 colon): > 100 µM | TGI (M14 melanoma): > 100 µM | TGI (RPMI-8226 leukemia): > 100 µM | TGI (SW-620 colon): > 100 µM | TGI (NCI-H23 lung): > 100 µM | TGI (ACHN renal): > 100 µM | TGI (OVCAR-3 ovarian): > 100 µM | TGI (SF-268 CNS): > 100 µM | TGI (HCT-116 colon): > 100 µM | TGI (LOX IMVI melanoma): > 100 µM | TGI (SNB-78 CNS): > 100 µM | TGI (SF-539 CNS): > 100 µM | TGI (OVCAR-8 ovarian): > 100 µM | TGI (SK-OV-3 ovarian): > 100 µM | TGI (TK-10 renal): > 100 µM | TGI (DLD-1 colon): > 100 µM | TGI (IGROV1 ovarian): > 100 µM | TGI (U251 CNS): > 100 µM | TGI (HOP-62 NSCLC): > 100 µM | TGI (KM12 colon): > 100 µM | TGI (EKVX NSCLC): > 100 µM | TGI (MALME-3M melanoma): > 100 µM | TGI (SNB-75 CNS): > 100 µM | TGI (K-562 leukemia): > 100 µM | TGI (SK-MEL-28 melanoma): > 100 µM | TGI (DMS 114 small cell lung): > 100 µM | TGI (UO-31 renal): > 100 µM | TGI (CCRF-CEM leukemia): > 100 µM | TGI (SK-MEL-2 melanoma): > 100 µM | TGI (SK-MEL-5 melanoma): > 100 µM | TGI (NCI-H522 lung): > 100 µM | TGI (A549 NSCLC): > 100 µM | TGI (CAKI-1 renal): > 100 µM | TGI (NCI-H460 lung): > 100 µM | TGI (UACC-62 melanoma): > 100 µM | TGI (786-0 renal): > 100 µM | TGI (COLO 205 colon): > 100 µM | TGI (UACC-257 melanoma): > 100 µM | TGI (M19-MEL melanoma): > 100 µM | TGI (A498 renal): > 100 µM | TGI (KM20L2 colon): > 100 µM | TGI (RXF 393 renal): > 100 µM | TGI (OVCAR-5 ovarian): > 100 µM | TGI (SNB-19 CNS): > 100 µM | TGI (HCC-2998 colon): > 100 µM

COC(=O)C1=C(C)N2CCOC2(C)C(C(=O)OC)C1c1ccc[nH]1 (stereo not drawn)
TGI (HL-60(TB) leukemia): > 100 µM | TGI (MOLT-4 leukemia): > 100 µM | TGI (LXFL 529 NSCLC): > 100 µM | TGI (NCI-H226 lung): > 100 µM | TGI (OVCAR-4 ovarian): > 100 µM | TGI (M14 melanoma): > 100 µM | TGI (HOP-92 NSCLC): > 100 µM | TGI (RPMI-8226 leukemia): > 100 µM | TGI (SW-620 colon): > 100 µM | TGI (NCI-H23 lung): > 100 µM | TGI (ACHN renal): > 100 µM | TGI (OVCAR-3 ovarian): > 100 µM | TGI (SF-268 CNS): > 100 µM | TGI (HCT-116 colon): > 100 µM | TGI (SF-539 CNS): > 100 µM | TGI (OVCAR-8 ovarian): > 100 µM | TGI (TK-10 renal): > 100 µM | TGI (SR leukemia): > 100 µM | TGI (DLD-1 colon): > 100 µM | TGI (IGROV1 ovarian): > 100 µM | TGI (HOP-62 NSCLC): > 100 µM | TGI (KM12 colon): > 100 µM | TGI (HT29 colon): > 100 µM | TGI (EKVX NSCLC): > 100 µM | TGI (SNB-75 CNS): 82.9 µM | TGI (K-562 leukemia): > 100 µM | TGI (SK-MEL-28 melanoma): > 100 µM | TGI (DMS 114 small cell lung): > 100 µM | TGI (UO-31 renal): > 100 µM | TGI (CCRF-CEM leukemia): > 100 µM | TGI (SK-MEL-2 melanoma): > 100 µM | TGI (SK-MEL-5 melanoma): > 100 µM | TGI (A549 NSCLC): > 100 µM | TGI (CAKI-1 renal): > 100 µM | TGI (NCI-H460 lung): > 100 µM | TGI (UACC-62 melanoma): > 100 µM | TGI (COLO 205 colon): > 100 µM | TGI (UACC-257 melanoma): > 100 µM | TGI (M19-MEL melanoma): > 100 µM | TGI (SF-295 CNS): > 100 µM | TGI (KM20L2 colon): > 100 µM | TGI (RXF 393 renal): > 100 µM | TGI (SNB-19 CNS): > 100 µM | TGI (HCC-2998 colon): > 100 µM

CC(=O)OCC1OC(n2c(=S)n(-c3ccc(C)cc3)c(=O)c3ccccc32)C(OC(C)=O)C(OC(C)=O)C1OC(C)=O (stereo not drawn)
TGI (MOLT-4 leukemia): > 100 µM | GI50 (OVCAR-4 ovarian): 17 µM and 45.1 µM | TGI (OVCAR-4 ovarian): 83.9 µM and > 100 µM | TGI (HOP-92 NSCLC): > 100 µM | TGI (RPMI-8226 leukemia): > 100 µM | TGI (TK-10 renal): > 100 µM | TGI (SR leukemia): > 100 µM | GI50 (DMS 114 small cell lung): 41.9 µM and 90 µM | TGI (DMS 114 small cell lung): > 100 µM | TGI (UO-31 renal): > 100 µM | TGI (RXF 393 renal): > 100 µM

COc1ccc(C(OCC2OC(n3cnc4c(=O)n(Cc5ccccc5[N+](=O)[O-])nnc43)C(O)C2O)(c2ccccc2)c2ccc(OC)cc2)cc1 (stereo not drawn)
TGI (HL-60(TB) leukemia): 5.85 µM | TGI (MOLT-4 leukemia): 9.57 µM | TGI (BT-549 breast): > 100 µM | TGI (NCI-H226 lung): 45.5 µM | TGI (OVCAR-4 ovarian): > 100 µM | TGI (HCT-15 colon): 91.2 µM | TGI (M14 melanoma): > 100 µM | TGI (HOP-92 NSCLC): 23.2 µM | TGI (RPMI-8226 leukemia): 15.7 µM | TGI (SW-620 colon): > 100 µM | TGI (NCI-H23 lung): > 90.8 µM | TGI (ACHN renal): 97.9 µM | TGI (OVCAR-3 ovarian): > 62.3 µM | TGI (SF-268 CNS): > 100 µM | TGI (HCT-116 colon): 13.1 µM | TGI (LOX IMVI melanoma): > 39.4 µM | TGI (SF-539 CNS): 34.1 µM | TGI (OVCAR-8 ovarian): > 100 µM | TGI (SK-OV-3 ovarian): > 100 µM | TGI (TK-10 renal): 64.1 µM | TGI (SR leukemia): 8.88 µM | TGI (IGROV1 ovarian): > 71.2 µM | TGI (PC-3 prostate): > 100 µM | TGI (U251 CNS): > 100 µM | TGI (HOP-62 NSCLC): > 100 µM | TGI (KM12 colon): > 92.4 µM | TGI (HT29 colon): 59.1 µM | TGI (SN12C renal): 45.7 µM | TGI (T-47D breast): > 100 µM | TGI (MDA-MB-231 breast): > 61.8 µM | TGI (EKVX NSCLC): > 100 µM | TGI (MALME-3M melanoma): 49.2 µM | TGI (SNB-75 CNS): > 100 µM | TGI (K-562 leukemia): > 57.4 µM | TGI (SK-MEL-28 melanoma): 69.5 µM | TGI (MCF7 breast): > 100 µM | TGI (UO-31 renal): > 87.4 µM | TGI (CCRF-CEM leukemia): 20.7 µM | TGI (NCI/ADR-RES ovarian): > 100 µM | TGI (SK-MEL-2 melanoma): 60.6 µM | TGI (SK-MEL-5 melanoma): > 45.5 µM | TGI (NCI-H522 lung): 48.9 µM | TGI (A549 NSCLC): > 100 µM | TGI (MDA-MB-435): > 91.4 µM | TGI (CAKI-1 renal): > 56.7 µM | TGI (NCI-H460 lung): > 53.1 µM | TGI (UACC-62 melanoma): 38.8 µM | TGI (786-0 renal): > 100 µM | TGI (HS 578T breast): > 94 µM | TGI (COLO 205 colon): 34.5 µM | TGI (UACC-257 melanoma): > 100 µM | TGI (MDA-N): 47.6 µM | TGI (DU-145 prostate): > 100 µM | TGI (SF-295 CNS): > 100 µM | TGI (A498 renal): 34.5 µM | TGI (RXF 393 renal): > 59.5 µM | TGI (OVCAR-5 ovarian): > 100 µM | TGI (SNB-19 CNS): > 100 µM | TGI (HCC-2998 colon): 26.9 µM

Reference: PubChem BioAssay (NCI)
